Blank lines part the entries; values can stand above or below the compound they belong to.
How the values were obtained:
Format in all cases: cell-based
[1] = system: Corynebacterium striatum T40A3; test: Antimicrobial assay (MIC, agar dilution); settings: amoxicillin
Protocol: (§1) The antimicrobial activity of crude extract and partitions was evaluated against 36 pathogenic microorganisms (22 Gram-positive bacteria, 13 Gram-negative bacteria, and 1 yeast) according to Mahamodo et al.. The 36 microorganisms were grown overnight at 37°C on sloping Mueller-Hinton (MH) agar medium. Briefly, the bacteria were diluted with Ringer's Cysteine (RC) solution to obtain 10^6 bacteria/ml. […] Inocula of 10^4 colony forming units (CFU) were spotted ultimately with a multipoint inoculator (Steers Replicator).

[2] = system: Corynebacterium striatum T46C1; test: Antimicrobial assay (MIC, agar dilution); settings: amoxicillin
Protocol: as §1

[3] = system: Dermabacter hominis T47A7; test: Antimicrobial assay (MIC, agar dilution); settings: amoxicillin
Protocol: as §1

[4] = system: Dermabacter hominis T49B5; test: Antimicrobial assay (MIC, agar dilution); settings: amoxicillin
Protocol: as §1

[5] = system: Enterococcus faecalis T37B1; test: Antimicrobial assay (MIC, agar dilution); settings: amoxicillin
Protocol: as §1

[6] = system: Enterococcus faecalis T47A16; test: Antimicrobial assay (MIC, agar dilution); settings: amoxicillin
Protocol: as §1

Escherichia coli T20A2 = test: Antimicrobial assay (MIC, agar dilution); settings: amoxicillin
Protocol: as §1

[7] = system: Pseudomonas aeruginosa ATCC9027; test: Antimicrobial assay (MIC, agar dilution); settings: amoxicillin
Protocol: as §1

[8] = system: Pseudomonas aeruginosa T41; test: Antimicrobial assay (MIC, agar dilution); settings: amoxicillin
Protocol: as §1

[9] = system: Staphylococcus aureus 8142; test: Antimicrobial assay (MIC, agar dilution); settings: amoxicillin
Protocol: as §1

[10] = system: Staphylococcus aureus 8143; test: Antimicrobial assay (MIC, agar dilution); settings: amoxicillin
Protocol: as §1

[11] = system: Staphylococcus aureus 8148; test: Antimicrobial assay (MIC, agar dilution); settings: amoxicillin
Protocol: as §1

[12] = system: Staphylococcus aureus T11; test: Antimicrobial assay (MIC, agar dilution); settings: amoxicillin
Protocol: as §1

[13] = system: Staphylococcus aureus T21; test: Antimicrobial assay (MIC, agar dilution); settings: amoxicillin
Protocol: as §1

[14] = system: Staphylococcus aureus T2510; test: Antimicrobial assay (MIC, agar dilution); settings: amoxicillin
Protocol: as §1

[15] = system: Staphylococcus aureus T26A4; test: Antimicrobial assay (MIC, agar dilution); settings: amoxicillin
Protocol: as §1

[16] = system: Staphylococcus aureus T281; test: Antimicrobial assay (MIC, agar dilution); settings: amoxicillin
Protocol: as §1

[17] = system: Staphylococcus aureus T306; test: Antimicrobial assay (MIC, agar dilution); settings: amoxicillin
Protocol: as §1

[18] = system: Staphylococcus aureus T61; test: Antimicrobial assay (MIC, agar dilution); settings: amoxicillin
Protocol: as §1

[19] = system: Staphylococcus capitis T21A3; test: Antimicrobial assay (MIC, agar dilution); settings: amoxicillin
Protocol: as §1

[20] = system: Staphylococcus capitis T29A2; test: Antimicrobial assay (MIC, agar dilution); settings: amoxicillin
Protocol: as §1

[21] = system: Staphylococcus epidermidis T151; test: Antimicrobial assay (MIC, agar dilution); settings: amoxicillin
Protocol: as §1

[22] = system: Staphylococcus epidermidis T19A1; test: Antimicrobial assay (MIC, agar dilution); settings: amoxicillin
Protocol: as §1

[23] = system: Staphylococcus lugdunensis T36A1; test: Antimicrobial assay (MIC, agar dilution); settings: amoxicillin
Protocol: as §1

[24] = system: Staphylococcus lugdunensis T47B2; test: Antimicrobial assay (MIC, agar dilution); settings: amoxicillin
Protocol: as §1

[25] = system: Staphylococcus pettenkoferi T282; test: Antimicrobial assay (MIC, agar dilution); settings: amoxicillin
Protocol: as §1

[26] = system: Staphylococcus pettenkoferi T33; test: Antimicrobial assay (MIC, agar dilution); settings: amoxicillin
Protocol: as §1

[27] = system: Staphylococcus saprophyticus 8237; test: Antimicrobial assay (MIC, agar dilution); settings: amoxicillin
Protocol: as §1

[28] = system: Streptococcus agalactiae T53A4; test: Antimicrobial assay (MIC, agar dilution); settings: amoxicillin
Protocol: as §1

[29] = system: WI38 (human normal fibroblast-like lung cell line); test: MTT cytotoxicity assay on WI38; settings: WI-38, 72 h, mean ± SEM, six determinations
Protocol: (§2) Cell Culture. The cytotoxicity was evaluated on two cell lines: J774 (macrophage-like cell line, derived from BALB/c murine reticulum cell sarcoma) and WI38 (human normal fibroblast-like lung cell line), using the tetrazolium salt MTT [3-(4,5-dimethylthiazol-2-yl)-2,5-diphenyltetrazolium bromide (Sigma)] colorimetric method, as described by Bero et al.. J774 cells were cultivated in a humidified atmosphere with 5% CO2 at 37°C in RPMI 1640 medium (Life Technologies, Paisley, UK) containing 2 mM L-glutamine supplemented with 10% heat-inactivated fetal bovine serum (Life Technologies) and penicillin-streptomycin (100 UI/ml). WI38 cells were cultivated in a humidified atmosphere with 5% CO2 at 37°C in DMEM medium (Life Technologies) containing 4 mM L-glutamine, 1 mM sodium pyruvate supplemented with 10% heat-inactivated fetal bovine serum (Life Technologies), and penicillin-streptomycin (100 UI/ml).
Cytotoxicity Assay. Briefly, WI38 or J774 cells were seeded in 96-well plates (5000 cells/well/180 µl medium or 2.8 × 10^4 cells/ml). After 24 h, cells were treated with 20 μl of crude extract and partitions solutions in a fixed concentration of 50 µg/ml to calculate cell viability percentage. […] Absorbance was recorded at 570 nm and 620 nm. […]
(§3) Cell viability% = [AT/ANT] × 100, with A: absorbance, NT: control cells, and T: treated cells.

[30] = system: J774 (macrophage-like cell line, derived from BALB/c murine reticulum cell sarcoma); test: MTT cytotoxicity assay on J774; settings: for IC50: Mus musculus, J774, MTT, 72 h, mean ± SEM, six determinations; for SI (IC50 WI38/IC50 J774): selectivity index WI38 vs J774
Protocol: as §2
Cytotoxicity Assay. Briefly, WI38 or J774 cells were seeded in 96-well plates (5000 cells/well/180 µl medium or 2.8 × 10^4 cells/ml). After 24 h, cells were treated with 20 μl of crude extract and partitions solutions in a fixed concentration of 50 µg/ml to calculate cell viability percentage. […] After 72 h, the medium was replaced by 100 μl of a 10% MTT solution (3 mg/ml in PBS) in medium. After 45 min, the medium was removed again and 100 μl of DMSO was added to solubilize formed formazan crystals. Absorbance was recorded at 570 nm and 620 nm. Each sample was tested in eight serial […] dilutions in 96-well microtiter plates, at least three wells per concentration in duplicate. Camptothecin (Sigma) was used as positive control (concentration range: 25–0.00032 µg/ml).
as §3

- Reference antibiotics MIC values [1]: R (R: >16)
- Reference antibiotics MIC values [2]: S (Amox (amoxicillin), S: ≤4)
- Reference antibiotics MIC values [3]: R (R: >16)
- Reference antibiotics MIC values [4]: S (Amox (amoxicillin), S: ≤4)
- Reference antibiotics MIC values [5]: S (Amox (amoxicillin), S: ≤4)
- Reference antibiotics MIC values [6]: R (R: >16)
- Reference antibiotics MIC values (Escherichia coli T20A2): S (Amox (amoxicillin), S: ≤4)
- Reference antibiotics MIC values [7]: R (R: >16)
- Reference antibiotics MIC values [8]: R (R: >16)
- Reference antibiotics MIC values [9]: R (R: >16)
- Reference antibiotics MIC values [10]: S (Amox (amoxicillin), S: ≤4)
- Reference antibiotics MIC values [11]: R (R: >16)
- Reference antibiotics MIC values [12]: R (R: >16)
- Reference antibiotics MIC values [13]: R (R: >16)
- Reference antibiotics MIC values [14]: R (R: >16)
- Reference antibiotics MIC values [15]: R (R: >16)
- Reference antibiotics MIC values [16]: R (R: >16)
- Reference antibiotics MIC values [17]: S (Amox (amoxicillin), S: ≤4)
- Reference antibiotics MIC values [18]: R (R: >16)
- Reference antibiotics MIC values [19]: S (Amox (amoxicillin), S: ≤4)
- Reference antibiotics MIC values [20]: S (Amox (amoxicillin), S: ≤4)
- Reference antibiotics MIC values [21]: R (R: >16)
- Reference antibiotics MIC values [22]: S (Amox (amoxicillin), S: ≤4)
- Reference antibiotics MIC values [23]: S (Amox (amoxicillin), S: ≤4)
- Reference antibiotics MIC values [24]: S (Amox (amoxicillin), S: ≤4)
- Reference antibiotics MIC values [25]: S (Amox (amoxicillin), S: ≤4)
- Reference antibiotics MIC values [26]: R (R: >16)
- Reference antibiotics MIC values [27]: S (Amox (amoxicillin), S: ≤4)
- Reference antibiotics MIC values [28]: R (R: >16)
Structure (SMILES): CC1(C)S[C@@H]2[C@H](NC(=O)[C@H](N)c3ccc(O)cc3)C(=O)N2[C@H]1C(=O)O [Amox, amoxicillin]

Structure (SMILES): CC[C@@]1(O)C(=O)OCc2c1cc1n(c2=O)Cc2cc3ccccc3nc2-1 [Camptothecin]
- IC50 [29]: 0.175 ± 0.029 µg/mL
- IC50 [30]: 0.011 ± 0.002 µg/mL
- SI (IC50 WI38/IC50 J774) [30]: 15^∗∗∗

Structure (SMILES): C=C(C)[C@@H]1CC[C@]2(C)CC[C@]3(C)[C@H](CC[C@@H]4[C@@]5(C)CC[C@H](O)C(C)(C)[C@@H]5CC[C@]43C)[C@@H]12 [Compound 1, lupeol]
- IC50 [29]: 19.2 ± 0.55 µg/mL
- IC50 [30]: 12.6 ± 0.23 µg/mL
- SI (IC50 WI38/IC50 J774) [30]: 1.5^∗∗∗
- SI (IC50 WI38/IC50 J774) ([30]; listed as Lupeol): 1.5

Source: article PMC5529658, “Antiproliferative and Antibacterial Activities of Cirsium scabrum from Tunisia” (Evidence-based Complementary and Alternative Medicine : eCAM, 2017)
